≈ marks a conversion by molar mass, not a printed value. Numbered stars: 1 amine (or outer) side, 2 acyl side, 3 side chain; on linkers, the order of the positions; unused ones are H or OH. Bridge positions count the residues as written; N and C are the ends. Square brackets hold non-standard residues; d marks the D form. Peptide text beside a SMILES is read from it. * marks the point of attachment. Orn(4R-OH,5R-OH) = O=C([C@H](C[C@@H](O)[C@@H](O)N[*:3])N[*:1])[*:2]; hTyr(3S-OH,4S-OH) = N[C@H](C(=O)O)[C@H](O)[C@@H](O)c1ccc(O)cc1; X8 = O=C(O)CCCCCNC(=O)C[C@@H](O)[C@H](N[*:1])C(=O)[*:2]; Orn(4R-OH) = O=C([C@H](C[C@@H](O)CN[*:3])N[*:1])[*:2]; X15 = NCCCCCCNC(=O)C[C@@H](O)[C@H](N[*:1])C(=O)[*:2]; hTyr(3R-OH) = N[C@H](C(=O)O)[C@H](O)Cc1ccc(O)cc1; X14 = NNC(=O)C[C@@H](O)[C@H](N[*:1])C(=O)[*:2]; X5 = NC(N)=NCC[C@@H](O)[C@H](N[*:1])C(=O)[*:2]; X4 = N=C(S)C[C@@H](O)[C@H](N[*:1])C(=O)[*:2]; X7 = CN(C)CC[C@@H](O)[C@H](N[*:1])C(=O)[*:2]; X13 = CNCC[C@@H](O)[C@H](N[*:1])C(=O)[*:2]; X9 = N#CC[C@@H](O)[C@H](N[*:1])C(=O)[*:2]; Orn(3R-OH) = NCC[C@@H](O)[C@H](N)C(=O)O; Pro(3S-OH) = O=C(O)[C@H]1NCC[C@@H]1O; Hyp = O=C(O)[C@@H]1C[C@@H](O)CN1; X1 = CCC(C)CC(C)CCCCCCCCC(=O)*
Assays:
Beta-1,3-glucan synthase = Beta-1,3-glucan synthase (Candida albicans, UniProt O13428); assay: Tested for inhibition of Beta-1,3-glucan synthase using a crude membrane of Candida albicans (MY 1208).
[1] = In vivo anti-Candida activity was determined in a mouse model of disseminated candidiasis (TOKA).; format: functional
Candida parapsilosis = assay: In vitro Fungicidal activity (MFC) against Candida parapsilosis (MY 1010).; format: functional; settings: Lodderomyces parapsilosis
Candida albicans = assay: In vitro Fungicidal activity (MFC) against Candida albicans (MY 1055).; format: functional

Sequence of Beta-1,3-glucan synthase (O13428 whole entry): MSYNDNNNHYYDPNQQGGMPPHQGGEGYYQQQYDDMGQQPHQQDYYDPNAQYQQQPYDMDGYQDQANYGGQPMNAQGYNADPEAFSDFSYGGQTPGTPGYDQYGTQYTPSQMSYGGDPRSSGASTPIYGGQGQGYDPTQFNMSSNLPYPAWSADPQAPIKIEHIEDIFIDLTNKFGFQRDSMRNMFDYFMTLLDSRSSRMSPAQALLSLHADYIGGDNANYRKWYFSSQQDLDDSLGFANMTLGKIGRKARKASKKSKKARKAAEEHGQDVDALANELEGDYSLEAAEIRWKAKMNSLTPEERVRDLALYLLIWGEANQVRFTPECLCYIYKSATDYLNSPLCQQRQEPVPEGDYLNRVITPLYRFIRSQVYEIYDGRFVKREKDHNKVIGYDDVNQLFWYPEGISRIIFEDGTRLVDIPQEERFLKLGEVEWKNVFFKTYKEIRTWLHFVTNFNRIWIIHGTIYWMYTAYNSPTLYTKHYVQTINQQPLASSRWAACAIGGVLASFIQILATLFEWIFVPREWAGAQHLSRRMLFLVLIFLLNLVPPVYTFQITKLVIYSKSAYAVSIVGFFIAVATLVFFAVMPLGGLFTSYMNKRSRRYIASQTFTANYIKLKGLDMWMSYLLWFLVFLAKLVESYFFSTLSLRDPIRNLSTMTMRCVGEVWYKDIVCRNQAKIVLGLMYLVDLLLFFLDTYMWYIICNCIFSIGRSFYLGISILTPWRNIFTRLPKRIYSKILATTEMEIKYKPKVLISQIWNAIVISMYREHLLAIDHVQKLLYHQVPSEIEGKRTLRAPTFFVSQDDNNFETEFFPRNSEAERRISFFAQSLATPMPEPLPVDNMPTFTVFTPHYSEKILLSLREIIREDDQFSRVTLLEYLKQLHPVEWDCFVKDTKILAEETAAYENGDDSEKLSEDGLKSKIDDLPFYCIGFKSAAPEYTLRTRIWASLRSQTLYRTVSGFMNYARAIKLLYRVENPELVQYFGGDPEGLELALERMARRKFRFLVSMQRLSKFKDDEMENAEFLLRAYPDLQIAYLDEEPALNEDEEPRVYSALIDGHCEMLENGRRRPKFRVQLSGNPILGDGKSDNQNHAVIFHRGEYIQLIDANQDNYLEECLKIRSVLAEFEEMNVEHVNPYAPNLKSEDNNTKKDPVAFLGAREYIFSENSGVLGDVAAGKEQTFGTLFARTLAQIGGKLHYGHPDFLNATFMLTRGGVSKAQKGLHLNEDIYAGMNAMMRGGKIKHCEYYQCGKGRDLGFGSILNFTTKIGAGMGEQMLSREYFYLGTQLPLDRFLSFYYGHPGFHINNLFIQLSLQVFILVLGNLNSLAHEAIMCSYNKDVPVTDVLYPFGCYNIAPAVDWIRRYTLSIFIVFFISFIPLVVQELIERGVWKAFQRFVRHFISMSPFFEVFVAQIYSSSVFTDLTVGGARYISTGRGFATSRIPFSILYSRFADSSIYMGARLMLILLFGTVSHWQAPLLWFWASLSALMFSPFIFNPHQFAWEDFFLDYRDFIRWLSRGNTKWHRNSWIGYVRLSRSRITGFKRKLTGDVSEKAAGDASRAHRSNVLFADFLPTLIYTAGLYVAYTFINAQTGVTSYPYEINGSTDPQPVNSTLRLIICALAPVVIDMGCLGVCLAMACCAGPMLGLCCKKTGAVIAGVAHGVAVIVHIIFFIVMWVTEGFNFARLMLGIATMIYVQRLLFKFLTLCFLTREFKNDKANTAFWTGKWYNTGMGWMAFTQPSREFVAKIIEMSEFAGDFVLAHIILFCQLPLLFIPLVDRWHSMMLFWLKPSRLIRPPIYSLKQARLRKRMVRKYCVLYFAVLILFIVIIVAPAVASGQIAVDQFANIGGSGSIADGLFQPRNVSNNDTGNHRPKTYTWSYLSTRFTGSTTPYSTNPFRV

Compound	IC50 (Beta-1,3-glucan synthase)	ED99.9 [1]	MFC (Candida parapsilosis)	MFC (Candida albicans)
CCC(C)CC(C)CCCCCCCCC(=O)N[C@H]1C[C@@H](O)CNC(=O)[C@@H]2[C@@H](O)CCN2C(=O)[C@H]([C@H](O)CC(=N)S)NC(=O)[C@H]([C@H](O)Cc2ccc(O)cc2)NC(=O)[C@@H]2C[C@@H](O)CN2C(=O)[C@H]([C@@H](C)O)NC1=O (stereo partly drawn) (X1-[Orn(4R-OH)]T[Hyp][hTyr(3R-OH)][X4][Pro(3S-OH)]; lactam 1-C)	120 nM	>6 mg/kg	4 µg/mL (≈ 3.81 µM)	0.25 µg/mL (≈ 0.238 µM)
CCC(C)CC(C)CCCCCCCCC(=O)N[C@H]1C[C@@H](O)CNC(=O)[C@@H]2[C@@H](O)CCN2C(=O)[C@H]([C@H](O)CC(=O)NN)NC(=O)[C@H]([C@H](O)Cc2ccc(O)cc2)NC(=O)[C@@H]2C[C@@H](O)CN2C(=O)[C@H]([C@@H](C)O)NC1=O (stereo partly drawn) (X1-[Orn(4R-OH)]T[Hyp][hTyr(3R-OH)][X14][Pro(3S-OH)]; lactam 1-C)	110 nM		8 µg/mL (≈ 7.63 µM)	4 µg/mL (≈ 3.82 µM)
CCC(C)CC(C)CCCCCCCCC(=O)N[C@H]1C[C@@H](O)CNC(=O)[C@@H]2[C@@H](O)CCN2C(=O)[C@H]([C@H](O)CC#N)NC(=O)[C@H]([C@H](O)Cc2ccc(O)cc2)NC(=O)[C@@H]2C[C@@H](O)CN2C(=O)[C@H]([C@@H](C)O)NC1=O (stereo partly drawn) (X1-[Orn(4R-OH)]T[Hyp][hTyr(3R-OH)][X9][Pro(3S-OH)]; lactam 1-C)	100 nM		4 µg/mL (≈ 3.94 µM)	1 µg/mL (≈ 0.985 µM)
CCC(C)CC(C)CCCCCCCCC(=O)N[C@H]1C[C@@H](O)CNC(=O)[C@@H]2[C@@H](O)CCN2C(=O)[C@H]([C@H](O)CC(=O)NCCCCCC(=O)O)NC(=O)[C@H]([C@H](O)Cc2ccc(O)cc2)NC(=O)[C@@H]2C[C@@H](O)CN2C(=O)[C@H]([C@@H](C)O)NC1=O (stereo partly drawn) (X1-[Orn(4R-OH)]T[Hyp][hTyr(3R-OH)][X8][Pro(3S-OH)]; lactam 1-C)	900 nM		64 µg/mL (≈ 55.8 µM)	2 µg/mL (≈ 1.74 µM)
CCC(C)CC(C)CCCCCCCCC(=O)N[C@H]1C[C@@H](O)CNC(=O)[C@@H]2[C@@H](O)CCN2C(=O)[C@H]([C@H](O)CCN)NC(=O)[C@H]([C@H](O)Cc2ccc(O)cc2)NC(=O)[C@@H]2C[C@@H](O)CN2C(=O)[C@H]([C@@H](C)O)NC1=O (stereo partly drawn) (X1-[Orn(4R-OH)]T[Hyp][hTyr(3R-OH)][Orn(3R-OH)][Pro(3S-OH)]; lactam 1-C)	10 nM	1.5 mg/kg		0.125 µg/mL (≈ 0.123 µM)
CCC(C)CC(C)CCCCCCCCC(=O)N[C@H]1C[C@@H](O)[C@@H](O)NC(=O)[C@@H]2[C@@H](O)CCN2C(=O)[C@H]([C@H](O)CCNC)NC(=O)[C@H]([C@H](O)[C@@H](O)c2ccc(O)cc2)NC(=O)[C@@H]2C[C@@H](O)CN2C(=O)[C@H]([C@@H](C)O)NC1=O (stereo partly drawn) (X1-[Orn(4R-OH,5R-OH)]T[Hyp][hTyr(3S-OH,4S-OH)][X13][Pro(3S-OH)]; lactam 1-C)	7 nM	0.375 mg/kg	2 µg/mL (≈ 1.88 µM)	2 µg/mL (≈ 1.88 µM)
CCC(C)CC(C)CCCCCCCCC(=O)N[C@H]1C[C@@H](O)[C@@H](O)NC(=O)[C@@H]2[C@@H](O)CCN2C(=O)[C@H]([C@H](O)CCN(C)C)NC(=O)[C@H]([C@H](O)[C@@H](O)c2ccc(O)cc2)NC(=O)[C@@H]2C[C@@H](O)CN2C(=O)[C@H]([C@@H](C)O)NC1=O (stereo partly drawn) (X1-[Orn(4R-OH,5R-OH)]T[Hyp][hTyr(3S-OH,4S-OH)][X7][Pro(3S-OH)]; lactam 1-C)	5 nM	1.5 mg/kg	2 µg/mL (≈ 1.85 µM)	1 µg/mL (≈ 0.927 µM)
CCC(C)CC(C)CCCCCCCCC(=O)N[C@H]1C[C@@H](O)[C@@H](O)NC(=O)[C@@H]2[C@@H](O)CCN2C(=O)[C@H]([C@H](O)CCN)NC(=O)[C@H]([C@H](O)[C@@H](O)c2ccc(O)cc2)NC(=O)[C@@H]2C[C@@H](O)CN2C(=O)[C@H]([C@@H](C)O)NC1=O (stereo partly drawn) (X1-[Orn(4R-OH,5R-OH)]T[Hyp][hTyr(3S-OH,4S-OH)][Orn(3R-OH)][Pro(3S-OH)]; lactam 1-C)	10 nM	0.375 mg/kg	0.5 µg/mL (≈ 0.476 µM)	< 0.06 µg/mL
CCC(C)CC(C)CCCCCCCCC(=O)N[C@H]1C[C@@H](O)[C@@H](O)NC(=O)[C@@H]2[C@@H](O)CCN2C(=O)[C@H]([C@H](O)CCN=C(N)N)NC(=O)[C@H]([C@H](O)[C@@H](O)c2ccc(O)cc2)NC(=O)[C@@H]2C[C@@H](O)CN2C(=O)[C@H]([C@@H](C)O)NC1=O (stereo partly drawn) (X1-[Orn(4R-OH,5R-OH)]T[Hyp][hTyr(3S-OH,4S-OH)][X5][Pro(3S-OH)]; lactam 1-C)	7 nM	1.5 mg/kg	0.5 µg/mL (≈ 0.457 µM)	< 0.06 µg/mL
CCC(C)CC(C)CCCCCCCCC(=O)N[C@H]1C[C@@H](O)CNC(=O)[C@@H]2[C@@H](O)CCN2C(=O)[C@H]([C@H](O)CC(=O)NCCCCCCN)NC(=O)[C@H]([C@H](O)Cc2ccc(O)cc2)NC(=O)[C@@H]2C[C@@H](O)CN2C(=O)[C@H]([C@@H](C)O)NC1=O (stereo partly drawn) (X1-[Orn(4R-OH)]T[Hyp][hTyr(3R-OH)][X15][Pro(3S-OH)]; lactam 1-C)	38 nM	>6 mg/kg		0.5 µg/mL (≈ 0.442 µM)
